“And” between values parts separate entries of the source, which are not always exact repeats. Equal entries are not always repeated.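 Compound exposure: 48 hours, 5 concentrations, 96-well plates. GI50: concentration for 50% inhibition of growth.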 The source made the active and inactive calls. Cut-off read from the data, not from the text of the source: active = GI50 up to about 1.1 µM and inactive = higher.

Holding throughout (assay): NCI-60 cell line screen, 48 h
In assay [1] the test system is SK-OV-3.
The test system of assay [2] is U-251.
For assay [3], the system named is OVCAR-8.
For assay [4], the system named is HL-60.
Assay [5] relates to SF-295.
For assay [6], the system named is K562.
Assay [7] has as its system EKVX.
In assay [8] the test system is OVCAR-4.
Assay [9] has as its system Malme-3M.
In assay [10] the test system is UO-31.
Assay [11] deals with HT-29.
In assay [12] the test system is PC-3.
Assay [13] relates to Hs-578T.
For assay [14], the system named is NCI-H226.
Assay [15] concerns A549.
Assay [16] concerns LOX IMVI.
Assay [17] has as its system MDA-MB-435.
Assay [18] relates to NCI-H522.
Assay [19] concerns SK-MEL-2.
Assay [20] deals with HCT-15.

For the compound `Cc1nc2ccccc2c(=O)n1NC(=O)c1ccc([N+](=O)[O-])cc1`, the GI50 in assay [1], in assay [2], in [3], in assay [4], in [5] and in assay [6] was > 100 µM (inactive) in each case. Moreover, the GI50 in assay [7], in assay [8], in [9], in assay [10], in [11] and in assay [12] was > 100 µM (inactive) each time. Further, the GI50 in [13], in assay [14], in assay [15], in assay [16], in assay [17] and in assay [18] was > 100 µM (inactive) in each case.

For the compound `CC(=O)C1C(=O)C(C(C)=O)C2C3C=CC(C3)C12` (stereo not drawn), the GI50 in assay [1], in [2], in assay [3], in assay [4], in [19] and in assay [5] was > 100 µM (inactive) throughout. The GI50 in assay [6], in [8], in assay [9], in assay [10], in assay [11] and in assay [12] was > 100 µM (inactive) in each case. Moreover, the GI50 in assay [13], in assay [14], in assay [15], in assay [16], in assay [17] and in assay [18] was > 100 µM (inactive) each time. Besides, in assay [20], the GI50 was greater than 100 µM.

For `COc1ccc(NC(=S)c2ccoc2C)cc1CC(=O)OC(C)C`, the GI50 in assay [1] is 54 µM (inactive); in assay [2], 67 µM (inactive); in assay [3] it was 29 µM (inactive); in [4], 22.1 µM (inactive); in assay [19], 18.2 µM (inactive); in assay [5] it was 38.1 µM (inactive). The GI50 in assay [6] is 34.8 µM (inactive); in assay [7], 25.1 µM (inactive); in assay [8] it was 30.1 µM (inactive); in assay [10] it was 30.6 µM (inactive); in [11] it was 16.7 µM (inactive); in assay [12], 21.9 µM (inactive). Also, the GI50 was 45.2 µM (inactive) in [13]; 12.4 µM (inactive) in assay [14]; 26.4 µM (inactive) in [15]; 18.8 µM (inactive) in assay [16]; 46.2 µM (inactive) in assay [17]; 36.3 µM (inactive) in assay [18]. Also, the GI50 in assay [20] was 55.2 µM.

With `COC(=O)c1c(C(=O)OC)c2ccccn2c1-c1cc(C)cc2c1C(=O)C=CC2=O`, the GI50 in assay [1] was > 10 µM (inactive); in [3], 6.3 µM (inactive); in assay [4], 2.24 µM (inactive); in assay [19], 12.5 µM (inactive); in [5], 12.2 µM (inactive); in assay [6], 2.67 µM (inactive). In addition, the GI50 in assay [7] is 14.8 µM (inactive); in [8] it was 14.2 µM (inactive); in assay [9], 10.2 µM (inactive); in assay [10] it was 2.38 µM (inactive); in assay [11], 11.2 µM (inactive); in assay [12], 14 µM (inactive). Besides, the GI50 is 12.9 µM (inactive) in [13]; 13.8 µM (inactive) in assay [14]; 16.3 µM (inactive) in assay [15]; > 10 µM (inactive) in assay [16]; 11.4 µM (inactive) in assay [17]; > 10 µM (inactive) in assay [18]. The compound further had a GI50 in assay [20] of 10.6 µM.

`N#Cc1c(N)nc2c(/N=N\c3ccccc3)c(N)nn2c1Nc1ccccc1`: the GI50 is 10.2 µM (inactive) in assay [2]; 3.72 µM (inactive) in [3]; 2.52 µM (inactive) in [4]; 7.91 µM (inactive) in assay [19]; 16.8 µM (inactive) in assay [5]; 3.4 µM (inactive) in assay [6]. Besides, the GI50 in assay [7] is 5.37 µM (inactive); in assay [8], 14.9 µM (inactive); in [9] it was 21.6 µM (inactive); in assay [10], > 10 µM (inactive); in [11], 12.4 µM (inactive); in assay [12], 5.69 µM (inactive). Besides, the GI50 in [13] is 1.06 µM (active); in assay [14], 25.7 µM (inactive); in assay [15], 21.1 µM (inactive); in [16], 3.4 µM (inactive); in assay [17], 16.4 µM (inactive); in assay [18] it was 17.8 µM (inactive). Further, in assay [20], the GI50 was 23.6 µM.

On to `CCOC(=O)C(NC(=O)c1cccc(Cl)c1)(Nc1cccc(C)c1)C(F)(F)F` (stereo not drawn), for which the GI50 in assay [2] was 23.8 µM (inactive); in assay [3], 21.2 µM (inactive); in assay [4], 38.5 µM (inactive); in [19], 16.3 µM (inactive); in [6], 23.6 µM (inactive); in [7], 18.7 µM (inactive). Moreover, the GI50 in assay [8] is 21.8 µM (inactive); in assay [9] it was 16.6 µM (inactive); in assay [10] it was 15.1 µM (inactive); in assay [11], 13.3 µM (inactive); in assay [12], 16.5 µM (inactive); in assay [13], 14.8 µM (inactive). In addition, the GI50 in assay [14] was 14 µM (inactive); in [15], 32 µM (inactive); in assay [16] it was 15.3 µM (inactive); in assay [17], 19.6 µM (inactive); in [18], 5.26 µM (inactive); in assay [20] it was 16.7 µM.

`COc1ccccc1/C=C(/C)[N+](=O)[O-]`: the GI50 was 1.68 µM (inactive) and 1.79 µM (inactive) in [2]; 1.79 µM (inactive) and 2.12 µM (inactive) in [3]; 1.88 µM (inactive) and 1.21 µM (inactive) in assay [4]; 1.99 µM (inactive) and 2.53 µM (inactive) in assay [19]; 3.21 µM (inactive) and 4.49 µM (inactive) in assay [7]; 5.94 µM (inactive) and 3.86 µM (inactive) in assay [8]. For the same compound, the GI50 in assay [9] is 2.51 µM (inactive) and 1.85 µM (inactive); in assay [10] it was 1.69 µM (inactive) and 1.72 µM (inactive); in assay [11], 3.65 µM (inactive) and 3.44 µM (inactive); in assay [12], 2.79 µM (inactive) and 2.53 µM (inactive); in [13] it was 4.55 µM (inactive) and 4.24 µM (inactive); in assay [14] it was 2.02 µM (inactive) and 2.34 µM (inactive). The GI50 was 2.33 µM (inactive) and 2.98 µM (inactive) in assay [15]; 3.15 µM (inactive) and 1.93 µM (inactive) in assay [17]; 1.39 µM (inactive) and 1.19 µM (inactive) in assay [18]; 1.96 µM and 2.01 µM in assay [20].

For the compound `N#Cc1nnn(C2CCCCC2)c1O`, the GI50 in [1], in assay [2], in assay [3], in assay [4], in assay [19] and in assay [5] was > 100 µM (inactive) throughout. Besides, the GI50 in assay [7], in assay [8], in assay [9], in [10], in assay [11] and in assay [12] was > 100 µM (inactive) throughout. Further, the GI50 in [13], in assay [14], in [15], in assay [16], in [17] and in [18] was > 100 µM (inactive) in each case. The same compound came in with a GI50 in assay [20] greater than 100 µM.

On to `COC(=O)c1cc2c(c3c1CC(Cc1ccccc1)C3=O)CCC2` (stereo not drawn), for which the GI50 is 80.5 µM (inactive) in assay [1]; 62.8 µM (inactive) in assay [2]; 95.3 µM (inactive) in assay [3]; > 100 µM (inactive) in assay [4]; > 100 µM (inactive) in [5]; 38.1 µM (inactive) in assay [6]. In addition, the GI50 in assay [7] is > 100 µM (inactive); in assay [8], 81.1 µM (inactive); in [9], 54.1 µM (inactive); in [11] it was 74.1 µM (inactive); in assay [12], > 100 µM (inactive); in assay [13], 45.9 µM (inactive). In addition, the GI50 in assay [14] is > 100 µM (inactive); in assay [15], 53.6 µM (inactive); in assay [16], 45.9 µM (inactive); in [17], 52.6 µM (inactive); in assay [18], 68.4 µM (inactive); in [20], 35 µM.

As to `CS(=O)(=O)c1nc(-c2cc3c(c(S(C)(=O)=O)n2)CCC3)cc2c1CCCC2`, the GI50 is 24.4 µM (inactive) in [1]; 27.1 µM (inactive) in [2]; 19.1 µM (inactive) in assay [3]; > 100 µM (inactive) in assay [4]; 24.6 µM (inactive) in assay [19]; 29.7 µM (inactive) in assay [5]. Also, the GI50 was > 100 µM (inactive) in [6]; > 100 µM (inactive) in [7]; > 100 µM (inactive) in [8]; 7.71 µM (inactive) in assay [10]; > 100 µM (inactive) in assay [11]; > 100 µM (inactive) in assay [12]. In addition, the GI50 in [13] is 2.55 µM (inactive); in [14], > 100 µM (inactive); in assay [15], > 100 µM (inactive); in assay [16], 18.7 µM (inactive); in assay [17], > 100 µM (inactive); in assay [18] it was 17 µM (inactive). The same compound came in with a GI50 in assay [20] greater than 100 µM.

As to `c1ccc(-c2cc(-c3ccccc3)nc(-c3ccncc3)c2)cc1`, the GI50 in assay [1] is > 100 µM (inactive); in assay [2] it was 37.6 µM (inactive); in [3], > 100 µM (inactive); in assay [4] it was > 100 µM (inactive); in assay [19] it was > 100 µM (inactive); in assay [5], 57.1 µM (inactive). Moreover, the GI50 in [6] is > 100 µM (inactive); in assay [7], > 100 µM (inactive); in assay [8], 16.4 µM (inactive); in assay [9], > 100 µM (inactive); in assay [10], > 100 µM (inactive); in assay [12], > 100 µM (inactive). Besides, the GI50 in assay [13] was > 100 µM (inactive); in assay [14] it was 58.5 µM (inactive); in assay [15] it was > 100 µM (inactive); in assay [16] it was > 100 µM (inactive); in assay [17], > 100 µM (inactive); in [18], > 100 µM (inactive). In [20], this compound displayed a GI50 greater than 100 µM.

The values are drawn from ChEMBL document CHEMBL1201862, “PubChem BioAssay data set” (2004).
